{
  "source": "patent US20080160594A1",
  "about": "“Methods of Light Activated Release of Ligands from Endosomes” (INVITROGEN CORPORATION, priority 2001, published 2008)",
  "origin": "cited, not measured here",
  "conditions": "Vlassov et al., 1994",
  "data": [
    {"smiles": "CCCCCCCC/C=C\\CCCCCCCCOCC(C[N+](C)(C)C)OCCCCCCCC/C=C\\CCCCCCCC.[Cl-]", "note": "(stereo not shown) [DOTMA, N-(1-(2,3-dioleyloxy)propyl)-N,N,N-trimethylammonium chloride]", "values": [
      {"measurement": "increase of the antisense effect of a phosphorothioate oligonucleotide", "value": 1000, "unit": "fold"}
    ]}
  ]
}
